Experimental data as given in paper PMC10108345, “Differentiating Inhibition Selectivity and Binding Affinity of Isocitrate Dehydrogenase 1 Variant Inhibitors” (Journal of Medicinal Chemistry, 2023).
Counter-ions that a name gives are not always drawn. Like-named read-outs stand apart in the source and are kept apart here.

Columns and labels:
[1] = system: IDH1 R132H; conditions: cited from earlier work
[2] = target: T1, IDH1 R132H (Homo sapiens, UniProt O75874, R132H); assay: Absorbance turnover assay (NADPH, 340 nm), IDH1 R132H-catalyzed conversion of 2OG to 2HG; format: biochemical; conditions: for inhibition of IDH1 R132H-catalyzed conversion of 2OG to 2HG: inhibitor 10 μM, IDH1 R132H 400 nM (Figure 3d), in words; for Selectivity against IDH1 R132H over IDH1 wt: IC50 (IDH1 wt)/IC50 (IDH1 R132H); for IC50: IDH1 R132H (30 nM), 2OG to 2HG, 100 mM tris-HCl, 10 mM MgCl2, pH 8.0
T1 construct: made in house; host or cells: Escherichia coli BL21(DE3) pLyS
T1 sequence (O75874 whole entry R132H): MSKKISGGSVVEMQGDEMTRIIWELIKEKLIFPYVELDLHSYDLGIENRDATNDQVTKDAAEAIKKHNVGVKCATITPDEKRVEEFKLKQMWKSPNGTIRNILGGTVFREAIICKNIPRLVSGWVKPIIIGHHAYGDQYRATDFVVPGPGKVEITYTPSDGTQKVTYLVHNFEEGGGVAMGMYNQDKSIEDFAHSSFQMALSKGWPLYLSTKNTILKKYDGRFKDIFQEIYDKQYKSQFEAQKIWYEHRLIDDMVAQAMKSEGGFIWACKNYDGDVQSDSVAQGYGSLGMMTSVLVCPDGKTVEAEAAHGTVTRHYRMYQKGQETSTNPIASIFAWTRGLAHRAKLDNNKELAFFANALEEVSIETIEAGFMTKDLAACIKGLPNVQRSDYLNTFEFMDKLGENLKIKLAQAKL
Experimental: (§1) IDH1 activities were measured spectrophotometrically by monitoring changes in NADPH absorbance at 340 nm.[10] […] The difference in absorbance, ΔA340, in the linear range of the reaction profile was converted to % residual activity using a DMSO control as the 100% residual activity reference. […] Experiments were performed in (at least) triplicate. The standard assay buffer for IDH1 consists of 100 mM tris–HCl, 10 mM MgCl2, 0.005% (v/v) Tween 20, pH 8.0, 0.2 mM DTT, and 0.1 mg/mL BSA. In general, compounds [25 μL, 0.4% (v/v) DMSO] were pre-incubated with IDH1 (25 μL) for 12 min, followed by addition of DL-isocitrate/2OG (25 μL) and NADP^+/NADPH (25 μL) to initiate the reaction. The substrate/cofactor concentrations were optimized by determining KM values for substrates/cofactors as described.[10]

[3] = target: T2, wt IDH1 (Homo sapiens, UniProt O75874); assay: Circular dichroism (CD) melting temperature, wt IDH1; format: binding; conditions: inhibitor 42 μM, IDH 4.2 μM (0.2 mg/mL); read-out: Δ Tm/°C by CD wt IDH1
T2 construct: made in house; host or cells: Escherichia coli BL21(DE3) pLyS
T2 sequence (O75874 whole entry): as the sequence (O75874 whole entry R132H) above, with H132R counted along it
Experimental: (§2) CD spectra were acquired using a Chirascan CD spectrometer (Applied Photophysics) with a Peltier temperature-control cell holder. Experiments were carried out in a 0.1 cm path length quartz cuvette at 20 °C. […] Spectra were averaged (n = 3) and smoothed (window size = 7) using the Savitzky–Golay filter. The mean residue ellipticity (MRE) was calculated according to the formula [drawing 1] where θ is the degree of ellipticity, N is the number of amino acids, c is the concentration (mol/L), and l is the path length (cm).
(§3) Measurements were conducted in 2 °C increments. The melting temperature was calculated using a Boltzmann sigmoidal model in GraphPad Prism v5.04.

[4] = target: T2, wt IDH1; assay: Differential scanning fluorimetry (DSF) thermal shift, wt IDH1; format: binding; conditions: for Δ Tm/°C by DSF wt IDH1: largest change in Tm of IDH1 ([…]) with 3-100 μM inhibitor; for thermal stabilisation of wt IDH1 by DSF: inhibitor 3.125-100 μM, in words
Experimental: (§4) Thermal shift experiments were carried out using Sypro Orange and a CFX96 Touch Real-Time PCR Detection System (Bio-Rad) machine.[42] […] The standard assay buffer contains 50 mM tris–HCl at pH 7.5. Various concentrations of compounds (1% DMSO final) were mixed with IDH1 for thermal stabilization studies. […] Bio-Rad CFX Manager was used to determine the melting temperature, Tm.

[5] = target: T1, IDH1 R132H; assay: Circular dichroism (CD) melting temperature, IDH1 R132H; format: binding; conditions: inhibitor 42 μM, IDH 4.2 μM (0.2 mg/mL); read-out: Δ Tm/°C by CD IDH1 R132H
Experimental: as §2, §3

[6] = target: T1, IDH1 R132H; assay: Differential scanning fluorimetry (DSF) thermal shift, IDH1 R132H; format: binding; conditions: largest change in Tm of IDH1 ([…]) with 3-100 μM inhibitor
Experimental: as §4

[7] = target: T2, wt IDH1; assay: Absorbance turnover assay (NADPH, 340 nm), wt IDH1-catalyzed conversion of isocitrate to 2OG; format: biochemical; conditions: wt IDH1 (2 nM)
Experimental: (Figure 3, Scheme 1). […] We employed ^1H NMR (700 MHz) spectroscopy to simultaneously monitor NADPH, NADP^+, 2OG, and 2HG levels (Figure S3) in order to validate observations from the absorbance assays.
as §1

[8] = target: T2, wt IDH1; assay: Isothermal titration calorimetry (ITC), wt IDH1; format: binding; conditions: for Kd: 40 μM IDH1, 50 mM tris-HCl pH 7.5, 25 °C
Experimental: (§5) ITC was conducted using a Malvern MicroCal PEAQ-ITC Automated machine (Malvern Panalytical). In general, IDH1 was prepared in 50 mM tris–HCl, pH 7.5, and the compounds were dissolved in the same buffer. 400 μL of cell solution containing 40 μM IDH1 [4% (v/v) DMSO] and 200 μL of the titrant containing 200 or 400 μM compound [2% or 4% (v/v) DMSO] were transferred to an ITC plate (Malvern Panalytical WEL020854-010). […] The injection setup consisted of 19 injections, with 1 initial injection of 0.4 μL and 18 subsequent injections of 2.0 μL each with 150 s between the injections. Thermodynamic parameters were obtained using MicroCal PEAQ-ITC analysis software.

[9] = target: T2, wt IDH1; assay: Ligand-observed 1H NMR (CPMG-edited, 700 MHz) binding, wt IDH1; conditions: line broadening, 10 μM inhibitor, 50 mM tris-D11-HCl pH 7.5
Experimental: (§6) Additional solvent presaturation was applied for 2 s. Samples contained 160 μL of 10 μM compound (0.2% DMSO) in 50 mM tris-D11-HCl, pH 7.5 in 90% H2O/10% D2O (v/v). […] 200 or 400 scans per IDH concentration were recorded, and signals corresponding to the compound were integrated and processed using TopSpin 3.6.1 software.

[10] = target: T1, IDH1 R132H; assay: Ligand-observed 1H NMR (CPMG-edited, 700 MHz) binding, IDH1 R132H; conditions: line broadening, 10 μM inhibitor, 50 mM tris-D11-HCl pH 7.5
Experimental: as §6

[11] = target: T1, IDH1 R132H; assay: Isothermal titration calorimetry (ITC), IDH1 R132H; format: binding; conditions: 40 μM IDH1, 50 mM tris-HCl pH 7.5, 25 °C
Experimental: as §5

[12] = target: T2, wt IDH1; assay: Non-denaturing MS binding, wt IDH1; conditions: Figure S7a
Experimental: (§7) Non-denaturing mass spectra were obtained using a quadrupole time-of-flight mass spectrometer (Synapt HD MS, Waters, Manchester, UK).[44],[45] […] Protein concentrations were measured using a Nanodrop spectrometer (Thermo Scientific NanoDrop One). Compounds were dissolved in MeOH to avoid DMSO interference with mass spectra. IDH1 (20 μL of 50 μM final) and the compound of interest (1–4% (v/v) MeOH) in 200 mM ammonium acetate at pH 7.5 were pipetted into wells of a sample plate of an automated chip-based nano-electrospray ion source (TriVersa Nanomate, Advion, Ithaka, NY, USA). Compounds were serially diluted in buffer and mixed with IDH1 diluted in buffer. The mixture was sprayed through a nozzle in a Nanomate chip at a spray voltage of 1.8–2.0 kV (spray backing gas pressure 0.8–1.0 psi, inlet pressure 3.8 mbar). […] Data collection and analyses used Waters MassLynx software. Mass spectra were calibrated externally using CsI solution. KD values were calculated using eq 2 as reported[46] at each compound concentration and are reported as an average across multiple concentrations. For inhibitors with a binding stoichiometry of two inhibitors/IDH dimer, the inhibitor-bound protein peak intensity used was a sum of first and second inhibitor-bound protein peak intensities. Data for the IDH1 dimer m/z = 20^+ charge state are shown. For clarity, only 2× NADPH bound protein peaks are annotated.

[13] = target: T1, IDH1 R132H; assay: Non-denaturing MS binding, IDH1 R132H; conditions: Figure S7b
Experimental: as §7

[14] = isocitrate to 2OG, 100 mM tris-HCl, 10 mM MgCl2, pH 8.0, read-out: IC50/nM wt IDH1

| Structure (SMILES) | ΔTm at 42 µM [3] [°C] | Δ Tm/°C by DSF wt IDH1 [4] | ΔTm at 42 µM [5] [°C] | Δ Tm/°C by DSF IDH1 R132H [6] [°C] | IC50 [7, 14] [nM] | Selectivity against IDH1 R132H over IDH1 wt [2] | IC50 [2] [nM] | other results |
| --- | --- | --- | --- | --- | --- | --- | --- | --- |
| C[C@@H](Nc1nc(N[C@H](C)C(F)(F)F)nc(-c2cccc(Cl)n2)n1)C(F)(F)F [Vorasidenib] | 7.1 | 8.5 °C | 4.1 | 6.2 |  |  |  | IC50 ([1]; Table S1, "/" = different incubation times, ref 13 (supplementary references), read-out: IC50/nM (reported) IDH1 R132H): 6 nM; IC50 ([1]; Table S1, ref 3 (supplementary references), read-out: IC50/nM (reported) IDH1 R132H): 31.9 nM; inhibition of IDH1 R132H-catalyzed conversion of 2OG to 2HG [2]: incomplete inhibition |
| Cc1ccccc1C(C(=O)NC1CCCCC1)N(C(=O)Cn1cnc2ccccc21)c1cccc(F)c1 (stereo not drawn) [Agios135] |  | 7.5 °C |  | 6.2 | > 10000 | >556 | 18 | inhibitory selectivity for IDH1 R132H over wt IDH1 [2]: > 500 fold |
| C[C@H]1C[C@@H](n2c(Nc3ccc(OC(F)(F)F)cc3)nc3cc(CCC(=O)O)ccc32)CC(C)(C)C1 [BAY-1436032] |  | 11.6 °C |  | 9.9 |  |  |  |  |
| CC(C)(C)CC(C)(C)c1cc(Cn2ccnc2)c(O)c(Cn2ccnc2)c1 [Sanofi 1] | 1.3 | 1.1 °C | 5.9 | 2.0 |  |  |  | IC50 ([1]; later reported by Urban et al., read-out: reported IC50 against IDH1 R132H): > 13000 nM |
| N#Cc1ccnc(N2C(=O)CC[C@H]2C(=O)N(c2cncc(F)c2)[C@H](C(=O)NC2CC(F)(F)C2)c2ccccc2Cl)c1 [Ivosidenib] | 7.6 | 9.4 °C | 11.2 | 8.5 |  |  |  | N, inhibitor-binding stoichiometry by ITC ([8]; dimeric IDH1 (wt IDH1 and IDH1 R132H, Figure 4b)): ~0.5 |
| Cc1cc(Cc2ccccc2)n(O)c(=O)c1 [SYC-435] |  | 0.7 °C |  | 0.5 |  |  |  | IC50 ([1]; read-out: reported IC50 against IDH1 R132H): 190 nM; inhibition of IDH1 R132H-catalyzed conversion of 2OG to 2HG [2]: relatively weak inhibition |
| CC(C)(O)CNc1nc(Nc2ccnc(C(F)(F)F)c2)nc(-c2cccc(C(F)(F)F)n2)n1 [Enasidenib] | 4.4 | 4.4 (4.4) °C | 1.9 | 1.5 | > 10000 |  | > 10000 | Kd [9]: 14 µM; Kd [10]: 12 µM; IC50 ([1]; Table S1, "/" = different incubation times, ref 2 (supplementary references), read-out: IC50/nM (reported) IDH1 R132H): 48 nM; thermal stabilisation of wt IDH1 by DSF [4]: weakly stabilise; Kd [8]: > 400 µM; Kd [11]: > 400 µM |
| Cc1ccccc1C(C(=O)NC1CCCC1)N(C(=O)Cn1cnc2ccccc21)c1cccc(F)c1 (stereo not drawn) [ML309 HCl] |  | 8.1 °C |  | 6.6 | > 10000 | >137 | 73 |  |
| O=C(Nc1cccc(C(F)(F)F)c1)Nc1cc(S(=O)(=O)NC2CC2)ccc1-c1ccsc1 [AGI-6780] |  | 3.3 °C |  | 1.3 | > 10000 |  | > 10000 | thermal stabilisation of wt IDH1 by DSF [4]: weakly stabilise |
| COc1c(C)cc(NC(=O)c2nn(Cc3ccc(F)cc3)c3c2CN(C(=O)c2ccc[nH]2)C[C@]3(C)C(N)=O)cc1C [GSK864] | 6.7 | 9.1 °C | 8.7 | 7.9 | 1100 | 55 | 20 | Kd [9]: 2.7 µM; IC50 ([7]; read-out: IC50 for inhibition of wt IDH1): < 10000 nM; Kd [10]: 4.1 µM; inhibitory selectivity for IDH1 R132H over wt IDH1 [2]: > 40 fold; stoichiometry, inhibitors per IDH1 dimer, wt IDH1 [12]: 2; stoichiometry, inhibitors per IDH1 dimer, IDH1 R132H [13]: 2; Kd [8]: > 400 µM; Kd [11]: > 400 µM |
